Test results reported in PubChem BioAssay (NCI).
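Compound exposure: 48 hours, 5 concentrations, 96-well plates. TGI is the concentration that stops growth completely.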

How the values were obtained:
Experiment in all cases: NCI-60 cell line screen, 48 h
[1] = system: HOP-62 NSCLC
[2] = system: IGROV1 ovarian
[3] = system: OVCAR-8 ovarian
[4] = system: NCI-H522 lung
[5] = system: U251 CNS
[6] = system: CAKI-1 renal
[7] = system: SF-539 CNS
[8] = system: KM12 colon
[9] = system: HCC-2998 colon
[10] = system: SF-295 CNS
[11] = system: OVCAR-3 ovarian
[12] = system: HS 578T breast
[13] = system: MDA-MB-435
[14] = system: HCT-116 colon
[15] = system: M14 melanoma
[16] = system: 786-0 renal
[17] = system: HL-60(TB) leukemia
[18] = system: SF-268 CNS
[19] = system: OVCAR-5 ovarian
[20] = system: BT-549 breast
[21] = system: SNB-75 CNS
[22] = system: HT29 colon
[23] = system: MALME-3M melanoma
[24] = system: SK-MEL-28 melanoma
[25] = system: SN12C renal
[26] = system: NCI/ADR-RES ovarian
[27] = system: MOLT-4 leukemia
[28] = system: SK-MEL-5 melanoma
[29] = system: K-562 leukemia
[30] = system: HOP-92 NSCLC
[31] = system: EKVX NSCLC
[32] = system: LOX IMVI melanoma
[33] = system: UO-31 renal
[34] = system: NCI-H226 lung
[35] = system: RXF 393 renal
[36] = system: A549 NSCLC
[37] = system: OVCAR-4 ovarian
[38] = system: COLO 205 colon
[39] = system: ACHN renal
[40] = system: A498 renal
[41] = system: MCF7 breast
[42] = system: TK-10 renal
[43] = system: DU-145 prostate
[44] = system: CCRF-CEM leukemia
[45] = system: PC-3 prostate
[46] = system: SK-OV-3 ovarian
[47] = system: SK-MEL-2 melanoma
[48] = system: SNB-19 CNS
[49] = system: MDA-MB-231 breast
[50] = system: RPMI-8226 leukemia
[51] = system: SW-620 colon
[52] = system: NCI-H23 lung
[53] = system: UACC-257 melanoma
[54] = system: SR leukemia
[55] = system: T-47D breast
[56] = system: MDA-N
[57] = system: UACC-62 melanoma
[58] = system: HCT-15 colon
[59] = system: NCI-H460 lung
[60] = system: M19-MEL melanoma
[61] = system: HOP-18 NSCLC
[62] = system: XF 498 CNS
[63] = system: LXFL 529 NSCLC
[64] = system: DMS 114 small cell lung
[65] = system: SNB-78 CNS
[66] = system: DMS 273 small cell lung
[67] = system: DLD-1 colon
[68] = system: KM20L2 colon

Measured: TGI

NC(=Nc1ccc(O)cc1)S(=O)O
not listed: [59] | [60] | [61] | [62] | [63] | [64] | [65] | [66] | [67] | [68]
> 100 µM: all other assays above

Cc1ccc(O)c(C(=O)CCCC(=O)c2cc(C)ccc2O)c1
not listed: [11] | [12] | [13] | [14] | [20] | [26] | [35] | [36] | [41] | [43] | [45] | [49] | [54] | [55] | [56]
> 100 µM: all other assays above
